From ChEMBL document CHEMBL6109108, “A comprehensive review of fused imidazonaphthyridine derivatives: Synthetic approaches and biological applications” (Bioorg Med Chem, 2025)
Values after ≈ are worked out from the molar mass of the structure shown.

Legend:
[1] = test system: Rattus norvegicus; assay: Anti-inflammatory activity against carrageenan-induced paw edema in rat assessed as inhibition of paw edema at 50 mg/kg, po relative to control; assay type: functional; design: scale not given: the % may be the effect or the level left
[2] = Antiproliferative activity against mouse BaF3/TRP-Met cells
[3] = test system: Chikungunya virus; assay: Antiviral activity against Chikungunya virus infected in Vero E6 cells assessed as inhibition of virus-induced cytopathic effect incubated for 72 hrs by CellTiter Glo luminescence assay; assay type: functional, organism-based; conditions: Vero C1008, 72 h
[4] = test system: Bacillus subtilis; assay: Antibacterial activity against Bacillus subtilis assessed as zone of inhibition at 150 ug/ml by agar disc diffusion method; assay type: functional; conditions: read-out: IZ
[5] = test system: Staphylococcus aureus; assay: Antibacterial activity against Staphylococcus aureus assessed as zone of inhibition at 200 ug/ml by agar disc diffusion method; assay type: functional; conditions: read-out: IZ
[6] = test system: Escherichia coli; assay: Antibacterial activity against Escherichia coli assessed as zone of inhibition at 150 ug/ml by agar disc diffusion method; assay type: functional; conditions: read-out: IZ
[7] = test system: Pseudomonas aeruginosa; assay: Antibacterial activity against Pseudomonas aeruginosa assessed as zone of inhibition at 150 ug/ml by agar disc diffusion method; assay type: functional; conditions: read-out: IZ
[8] = test system: Bacillus subtilis; assay: Antibacterial activity against Bacillus subtilis assessed as zone of inhibition at 250 ug/ml by agar disc diffusion method; assay type: functional; conditions: read-out: IZ
[9] = test system: Bacillus subtilis; assay: Antibacterial activity against Bacillus subtilis assessed as zone of inhibition at 200 ug/ml by agar disc diffusion method; assay type: functional; conditions: read-out: IZ
[10] = test system: Pseudomonas aeruginosa; assay: Antibacterial activity against Pseudomonas aeruginosa assessed as zone of inhibition at 250 ug/ml by agar disc diffusion method; assay type: functional; conditions: read-out: IZ
[11] = test system: Staphylococcus aureus; assay: Antibacterial activity against Staphylococcus aureus assessed as zone of inhibition at 250 ug/ml by agar disc diffusion method; assay type: functional; conditions: read-out: IZ
[12] = test system: Staphylococcus aureus; assay: Antibacterial activity against Staphylococcus aureus assessed as zone of inhibition at 150 ug/ml by agar disc diffusion method; assay type: functional; conditions: read-out: IZ
[13] = test system: Escherichia coli; assay: Antibacterial activity against Escherichia coli assessed as zone of inhibition at 200 ug/ml by agar disc diffusion method; assay type: functional; conditions: read-out: IZ
[14] = test system: Escherichia coli; assay: Antibacterial activity against Escherichia coli assessed as zone of inhibition at 250 ug/ml by agar disc diffusion method; assay type: functional; conditions: read-out: IZ
[15] = test system: Pseudomonas aeruginosa; assay: Antibacterial activity against Pseudomonas aeruginosa assessed as zone of inhibition at 200 ug/ml by agar disc diffusion method; assay type: functional; conditions: read-out: IZ
[16] = biological target: hERG (KCNH2) (Homo sapiens, UniProt Q12809); assay: Inhibition of hERG potassium […] at 6.25 uM relative to control; assay type: toxicity
[17] = test system: Escherichia coli; assay: Antibacterial activity against Escherichia coli assessed as zone of inhibition at 10 ug/ml by agar well diffusion method; assay type: functional; conditions: read-out: IZ
[18] = test system: Staphylococcus aureus; assay: Antibacterial activity against Staphylococcus aureus assessed as zone of inhibition at 10 ug/ml by agar well diffusion method; assay type: functional; conditions: read-out: IZ
[19] = test system: Escherichia coli; assay: Antibacterial activity against Escherichia coli assessed as zone of inhibition at 25 ug/ml by agar well diffusion method; assay type: functional; conditions: read-out: IZ
[20] = test system: Staphylococcus aureus; assay: Antibacterial activity against Staphylococcus aureus assessed as zone of inhibition at 35 ug/ml by agar well diffusion method; assay type: functional; conditions: read-out: IZ
[21] = test system: Escherichia coli; assay: Antibacterial activity against Escherichia coli assessed as zone of inhibition at 35 ug/ml by agar well diffusion method; assay type: functional; conditions: read-out: IZ
[22] = test system: Staphylococcus aureus; assay: Antibacterial activity against Staphylococcus aureus assessed as zone of inhibition at 25 ug/ml by agar well diffusion method; assay type: functional; conditions: read-out: IZ
[23] = test system: Shigella flexneri; assay: Antibacterial activity against Shigella flexneri NIHJ assessed as reduction in bacterial growth by CLSI protocol based agar dilution method; assay type: functional
[24] = test system: Escherichia coli; assay: Antibacterial activity against Escherichia coli 209p assessed as reduction in bacterial growth by CLSI protocol based agar dilution method; assay type: functional
[25] = test system: Staphylococcus aureus; assay: Antibacterial activity against Staphylococcus aureus assessed as reduction in bacterial growth by CLSI protocol based agar dilution method; assay type: functional
[26] = test system: Pseudomonas aeruginosa; assay: Antibacterial activity against Pseudomonas aeruginosa assessed as reduction in bacterial growth by CLSI protocol based agar dilution method; assay type: functional
[27] = biological target: Voltage-gated inwardly rectifying potassium channel KCNH2 (Homo sapiens, UniProt Q12809); assay: Inhibition of hERG; assay type: toxicity
[28] = test system: Hepatitis C virus; assay: Antiviral activity against Hepatitis C virus genotype 2a infected in human Huh-7 cells assessed as reduction in viral infection; assay type: functional, organism-based, Hepacivirus hominis

Sequence of hERG (KCNH2) (Q12809 whole entry, the tested form may be a part): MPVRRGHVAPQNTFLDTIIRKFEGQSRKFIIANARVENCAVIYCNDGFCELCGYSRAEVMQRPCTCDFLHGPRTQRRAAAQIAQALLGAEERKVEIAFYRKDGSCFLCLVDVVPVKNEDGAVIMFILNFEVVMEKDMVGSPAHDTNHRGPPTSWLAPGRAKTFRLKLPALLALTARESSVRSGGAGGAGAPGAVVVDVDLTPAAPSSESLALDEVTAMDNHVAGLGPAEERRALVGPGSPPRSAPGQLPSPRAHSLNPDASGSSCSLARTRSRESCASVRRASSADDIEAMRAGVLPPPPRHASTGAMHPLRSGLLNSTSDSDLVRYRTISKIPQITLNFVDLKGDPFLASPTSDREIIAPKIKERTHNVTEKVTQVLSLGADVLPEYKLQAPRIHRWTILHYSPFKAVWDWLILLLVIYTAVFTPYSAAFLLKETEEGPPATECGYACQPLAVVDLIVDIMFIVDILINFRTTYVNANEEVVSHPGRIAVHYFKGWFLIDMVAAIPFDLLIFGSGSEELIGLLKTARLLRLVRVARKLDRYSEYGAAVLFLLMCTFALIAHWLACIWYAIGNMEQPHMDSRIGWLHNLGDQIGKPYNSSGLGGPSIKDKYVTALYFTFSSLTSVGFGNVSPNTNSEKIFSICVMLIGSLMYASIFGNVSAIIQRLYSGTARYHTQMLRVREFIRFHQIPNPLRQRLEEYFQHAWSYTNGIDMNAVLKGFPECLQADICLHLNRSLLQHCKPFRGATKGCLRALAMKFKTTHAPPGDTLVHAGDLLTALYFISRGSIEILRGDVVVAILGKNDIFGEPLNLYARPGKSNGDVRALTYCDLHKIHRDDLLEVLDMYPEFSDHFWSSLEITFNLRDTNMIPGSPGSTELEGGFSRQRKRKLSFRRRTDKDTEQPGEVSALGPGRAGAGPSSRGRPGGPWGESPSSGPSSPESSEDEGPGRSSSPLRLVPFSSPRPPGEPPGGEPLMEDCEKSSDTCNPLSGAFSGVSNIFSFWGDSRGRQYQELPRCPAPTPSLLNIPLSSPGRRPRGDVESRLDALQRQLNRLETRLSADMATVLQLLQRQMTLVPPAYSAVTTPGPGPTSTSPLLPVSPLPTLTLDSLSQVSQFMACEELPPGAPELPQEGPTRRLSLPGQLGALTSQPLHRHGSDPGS
Sequence of Voltage-gated inwardly rectifying potassium channel KCNH2 (Q12809 whole entry): as the sequence (Q12809 whole entry, the tested form may be a part) above

With CCn1cnc2c3cccnc3n(-c3ccccc3)c(=O)c21 the Activity [1] was 58.2%.

Molecule Cn1cnc2c3cccnc3n(-c3ccccc3)c(=O)c21 has an Activity [1] of 40%.

Work on N[C@H]1CC[C@H](n2c(=O)n(Cc3ccc(Cl)c(Cl)c3)c3nc(Oc4ccc(C(=O)N5CCCCC5)cc4)c4cccnc4c32)CC1 yielded an IC50 [2] of under 1 µM.

Work on FC(F)(F)c1cc(C(F)(F)F)c2ccc3nc(-c4nnco4)cn3c2n1 yielded an EC50 [3] of 0.203 µM.

In the case of O=[N+]([O-])c1cccc(-c2cc3cccnc3n3c2nc2ccc(O)cc23)c1, the zone of inhibition at 150 µg/mL [4] is reported as 16 mm, the zone of inhibition at 200 µg/mL [5] is reported as 20 mm and the zone of inhibition at 150 µg/mL [6] is reported as 17 mm. For the same molecule, the zone of inhibition at 150 µg/mL [7] was 17 mm, the zone of inhibition at 250 µg/mL [8] was 23 mm and the zone of inhibition at 200 µg/mL [9] was 19 mm. The zone of inhibition at 250 µg/mL [10] was 22 mm, the zone of inhibition at 250 µg/mL [11] was 22 mm and the zone of inhibition at 150 µg/mL [12] was 18 mm. It also gave a zone of inhibition at 200 µg/mL [13] of 22 mm, a zone of inhibition at 250 µg/mL [14] of 22 mm and a zone of inhibition at 200 µg/mL [15] of 20 mm.

Cc1cc(C)c2ccc3nc(-c4ccc(F)cc4)c(CN4CCCCC4)n3c2n1 showed an inhibition at 6.25 µM [16] of 11%.

Work on O=[N+]([O-])c1cccc(-c2cnc3c(-c4ccc(F)cc4Cl)cc4cccnc4n23)c1 yielded a zone of inhibition at 10 µg/mL [17] of 6 mm, a zone of inhibition at 10 µg/mL [18] of 6 mm and a zone of inhibition at 25 µg/mL [19] of 16 mm. For the same molecule, the zone of inhibition at 35 µg/mL [20] was 24 mm, the zone of inhibition at 35 µg/mL [21] was 25 mm and the zone of inhibition at 25 µg/mL [22] was 16 mm.

In the case of CCn1cnc2cc3c(=O)c(C(=O)O)cn(CC)c3nc21, the MIC [23] is reported as 3.13 µg/mL (≈ 10.9 µM), the MIC [24] is reported as 3.13 µg/mL (≈ 10.9 µM) and the MIC [25] is reported as 25 µg/mL (≈ 87.3 µM). For the same molecule, the MIC [26] was over 100 µg/mL.

COc1ccc(-c2nc3ccc4c(C)cc(C)nc4n3c2CN2CCC(C)CC2)cc1 showed an IC50 [27] of 1.12 µM.

Molecule Cc1cccc(-c2cnc3ccc4c(C(F)(F)F)cc(C(F)(F)F)nc4n23)c1 has an EC50 [28] of 2.6 µM.

Cc1ccccc1-c1cnc2ccc3c(C(F)(F)F)cc(C(F)(F)F)nc3n12 gave an EC50 [28] of 2.8 µM.

In the case of FC(F)(F)c1cc(C(F)(F)F)c2ccc3ncc(-c4cncnc4)n3c2n1, the EC50 [28] is reported as over 20 µM.

Fc1ccc(-c2cc3cccnc3n3c(-c4ccc(Cl)cc4)cnc23)c(Cl)c1 gave a zone of inhibition at 10 µg/mL [17] of 6 mm, a zone of inhibition at 10 µg/mL [18] of 6 mm and a zone of inhibition at 25 µg/mL [19] of 16 mm. For the same molecule, the zone of inhibition at 35 µg/mL [20] was 24 mm, the zone of inhibition at 35 µg/mL [21] was 25 mm and the zone of inhibition at 25 µg/mL [22] was 16 mm.
